Molecules are shown by their SMILES. Values joined by “and” are separate entries in the source; they are usually repeats but may differ in a detail not shown here. Identical values can stand only once.

What all share (type): cell-based
Test [1] has as its target 320 non-olfactory GPCRs (Homo sapiens, UniProt P25025).
Test [2] concerns the target T1, 320 non-olfactory GPCRs (Homo sapiens, UniProt Q9NS75).
T1 construct: expressed in transfected cells; host or cells: HTLA cells

Test [3] has as its target 320 non-olfactory GPCRs (Homo sapiens, UniProt P35372). To be noted: receptor OPRM1; replicate values, Fig_4g.
For test [4], the target named is T2, 320 non-olfactory GPCRs (Homo sapiens, UniProt P30559).
T2 construct: expressed in transfected cells; host or cells: HTLA cells
T2 sequence (P30559 whole entry): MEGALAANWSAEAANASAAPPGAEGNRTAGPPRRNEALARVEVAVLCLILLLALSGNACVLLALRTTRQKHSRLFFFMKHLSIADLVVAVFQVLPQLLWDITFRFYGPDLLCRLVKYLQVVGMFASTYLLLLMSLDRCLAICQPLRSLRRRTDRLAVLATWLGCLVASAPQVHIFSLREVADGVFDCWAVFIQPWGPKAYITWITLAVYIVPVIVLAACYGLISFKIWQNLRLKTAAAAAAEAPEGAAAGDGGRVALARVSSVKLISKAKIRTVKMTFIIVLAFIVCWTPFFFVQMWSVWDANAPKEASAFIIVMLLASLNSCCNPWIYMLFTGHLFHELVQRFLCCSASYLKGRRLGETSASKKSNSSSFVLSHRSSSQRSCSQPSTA
To be noted: receptor OXTR; replicate values, Fig_4g.
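Throughout, for Fold of Basal: compound tested at 1 µM final concentration.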
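Throughout, for GPCRome agonism screen response: fold over basal response of each receptor without drug.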

Chain of 320 non-olfactory GPCRs (Homo sapiens, UniProt P25025) (P25025 whole entry): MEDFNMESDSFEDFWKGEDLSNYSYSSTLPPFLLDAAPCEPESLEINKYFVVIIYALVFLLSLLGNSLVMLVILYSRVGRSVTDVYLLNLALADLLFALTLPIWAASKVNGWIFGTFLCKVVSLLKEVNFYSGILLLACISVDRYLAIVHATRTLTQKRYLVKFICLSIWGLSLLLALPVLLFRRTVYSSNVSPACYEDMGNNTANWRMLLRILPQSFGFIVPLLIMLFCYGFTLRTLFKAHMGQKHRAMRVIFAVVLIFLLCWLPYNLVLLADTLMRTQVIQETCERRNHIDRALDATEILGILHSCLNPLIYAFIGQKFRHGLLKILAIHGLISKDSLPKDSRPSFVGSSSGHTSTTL
Chain of 320 non-olfactory GPCRs (Homo sapiens, UniProt P35372) (P35372 whole entry): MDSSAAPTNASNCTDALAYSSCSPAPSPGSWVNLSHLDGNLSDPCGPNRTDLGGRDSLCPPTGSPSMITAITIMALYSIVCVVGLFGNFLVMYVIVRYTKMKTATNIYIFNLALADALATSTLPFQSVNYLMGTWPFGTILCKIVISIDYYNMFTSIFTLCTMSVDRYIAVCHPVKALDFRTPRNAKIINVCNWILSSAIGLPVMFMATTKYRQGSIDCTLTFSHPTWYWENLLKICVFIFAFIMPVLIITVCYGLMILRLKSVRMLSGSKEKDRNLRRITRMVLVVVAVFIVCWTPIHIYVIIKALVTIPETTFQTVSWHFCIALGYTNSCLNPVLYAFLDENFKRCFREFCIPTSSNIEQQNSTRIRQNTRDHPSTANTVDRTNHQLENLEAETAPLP
T1 sequence (Q9NS75 whole entry): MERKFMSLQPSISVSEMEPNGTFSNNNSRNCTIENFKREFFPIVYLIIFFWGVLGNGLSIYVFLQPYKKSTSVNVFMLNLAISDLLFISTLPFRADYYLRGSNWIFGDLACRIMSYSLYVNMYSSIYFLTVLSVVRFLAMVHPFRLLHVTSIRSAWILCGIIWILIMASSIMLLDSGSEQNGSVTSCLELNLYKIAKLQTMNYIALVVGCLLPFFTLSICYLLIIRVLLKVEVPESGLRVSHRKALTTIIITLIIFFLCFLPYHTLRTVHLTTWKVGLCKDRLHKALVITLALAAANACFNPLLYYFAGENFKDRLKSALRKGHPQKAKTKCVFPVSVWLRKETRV

`CCOc1cccc2cc(C(C)NCC3(O)CCCCC3)oc12` (stereo not shown) [O4LE6]: the “Fold of Basal” value was 1.166 and 1.131 and 0.9959 and 1.015 at 320 non-olfactory GPCRs [1]; 2.056 and 1.771 and 2.16 and 1.536 on 320 non-olfactory GPCRs [2]. In addition, the “GPCRome agonism screen response” value is 0.5449 and 0.6973 and 1.0539 and 0.5973 at 320 non-olfactory GPCRs [3]; 1.578 and 1.894 and 1.457 and 1.467 on 320 non-olfactory GPCRs [4].

(Values after article PMC7044277 (Nature Communications, 2020).)
